Results taken from patent publication US10287581B2, “Cell penetrating peptides for intracellular delivery of molecules” (AADIGEN, LLC, priority 2011, dated 2019).

Assays:
cyclin B1 = test: Cyclin B1 silencing at protein (Western blotting) and mRNA (Quantigen) level; type: cell-based, Human; conditions: 200 nM siRNA complexed with VEPEP-6 at a 1/20 ratio
Description: FIGS. 6A-6C: VEPEP-6 dose response of Cyclin B1 silencing at the protein and mRNA levels on Hela (6A) and HS68 (6B) cells. Stock solution of VEPEP-6/siRNA ([…]) particles were prepared at a molar ratio of 1/20 (siRNA/VEPEP-6), and lower concentrations (from 200 nM to 0.125 nM) were obtained by serial dilution of the stock solution in PBS. HeLa (Panel A) and HS-68 (Panel B) cells (60% confluency) were overlaid with preformed complexes for 30 min, then fresh DMEM supplemented with 10% FCS was added directly to the cells, which were then returned to the incubator for 24 hrs. Cyclin B1 protein levels were determined by Western Blotting using Cdk2 as a control for quantification (white bars). Cyclin B1 mRNA levels were measured 12 hrs after transfection using Quantigen technology (black bars). Mismatched Cyc-B3 siRNA associated with VEPEP-6 (200 nM) and empty VEPEP-6 particles (20 μM) were used as a control. 6C: Dose-response of G2-arrest associated with Cyclin B1 silencing. HeLa (black bars) and HS68 (white bars) cells were treated with increasing concentrations of VEPEP-6/siRNA-Cyc-B1 from 0.25 nM to 20 nM. The cell cycle status was evaluated by FACS analysis. […]
Cyclin B1 mRNA and protein levels were determined 12 and 24 hrs following transduction, using Quantigen (Panomics Inc.) and Western blotting, respectively. […]

PC3 xenografted tumors = test: Tumour growth in PC3-xenografted mice, cyclin B1 siRNA; type: in vivo
Description: FIGS. 11A-11D: NANOPEP-6 Cyclin B1 siRNA delivery upon topical and systemic injection. Athymic female nude mice were subcutaneously inoculated into the flank with 1×10^6 PC3 (11A and 11B) or HT29 (11C and 11D). Two to three weeks after tumour implant, when tumour size reached about 100 mm^3, animals were treated by intratumoral (11A and 11C) injections, every 3 days, with a solution either saline buffer solution (closed triangle), free Cyc-B1 siRNA (open triangle), control siRNA Cyc-B3 (closed box) or Cyc-B1 siRNA at 5 μg (open circle) and 10 μg (closed circle) complexed with NANOPEP-6 at a 1/20 molar ratio. […] Tumour diameter was measured in two directions at regular intervals using a digital calliper and tumour volume was calculated as length×width×height×0.52. […]
Tumour diameter was measured in two directions at regular intervals using a digital calliper and tumour volume was calculated as length×width×height×0.52. […] The statistical significance of the results was calculated by Student's t test and p<0.05 considered to be statistically significant. […]
The potential of NANOPEP-6 (VEPEP6/VEPEP6) to deliver cyclin B1 siRNA in vivo was first evaluated on human prostate carcinoma cell PC3-xenografted mice (FIG. 11A). The effect of local intratumoral administration of NANOPEP-6/siRNA particles (molar ratio 20/1) on the growth of established subcutaneous tumours was evaluated. […]

Substance: Cyc-B3: cyclin B1 siRNA harbouring two mismatches, control, SEQ ID No: 19/20 (chain 1 GGUGAAGAUCAGCAUGGCATT; chain 2 UGCCAUGUCGAUCUUCACCTT; chemistry not given here)
- effect on cyclin B1 levels and cell cycle progression (cyclin B1): no effect
- inhibition of tumour growth (PC3 xenografted tumors; complexed with NANOPEP-6, 0.5 mg/kg): unable to inhibit tumour growth

Substance: naked siRNA: Cyc-B1 siRNA without carrier, SEQ ID No: 17/18 (chain 1 GGCGAAGAUCAACAUGGCATT; chain 2 UGCCAUGUUGAUCUUCGCCTT; chemistry not given here)
- effect on tumour growth (PC3 xenografted tumors; controls: naked siRNA 100 (intratumoral or intravenous), carrier alone): no significant effect
